In patent publication US20250228861A1, “Cancer Treatments Using MTA-Cooperative PRMT5 Inhibitors” (AMGEN INC., priority 2022, published 2025):
Entries after “also recorded” stand apart in the source; their conditions may differ.

Legend:
[1] = system: A549 cells; test: Combination with paclitaxel, CellTiter-Glo viability, Fa and CalcuSyn CI; format: cell-based; conditions: 6 days;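 note: luminescent viability signal converted to fraction affected (Fa), and Fa with drug concentrations gives the CalcuSyn CI, where 0.9–1.1 is nearly additive and lower CI means stronger synergism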
Experimental: (§1) Cell viability was measured by the CellTiter-Glo Luminescence assay. Raw luminescent values were converted to fraction affected (Fa) with the following equation:
(§2) Synergy analysis was performed using the CalcuSyn software to determine CI scores based on the drug concentrations used and corresponding Fa values.

[2] = system: HCT116 MTAP-WT cells; test: Global SDMA levels (in-cell imaging) in MTAP-WT cells; format: cell-based; conditions: Homo sapiens, HCT-116, 96 h, 4 days
Experimental: FIG. 1. […] Viability was measured by CellTiter-Glo and cooperativity was determined as follows: Cooperativity=WT IC50/MTAP-null IC50.
HCT116 WT and MTAP-null global SDMA levels were assessed by an in-cell imaging assay after 4 days treatment.

[3] = system: MIAPACA2T2 cells; test: Combination with irinotecan, CellTiter-Glo viability, Fa and CalcuSyn CI; format: cell-based; conditions: 6 days
Experimental: as §1, §2

[4] = system: H292 cells; test: Combination with paclitaxel, CellTiter-Glo viability, Fa and CalcuSyn CI; format: cell-based; conditions: 6 days;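 note: fa derived from raw luminescence, CI computed in CalcuSyn from drug concentrations and Fa, with CI under 0.9 indicating synergism and 0.9 to 1.1 nearly additive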
Experimental: as §1, §2

[5] = system: H292 NSCLC xenografts; test: H292 NSCLC xenografts, combination with chemotherapy; format: in vivo, mice
[6] = system: H292 cells; test: Combination with pemetrexed, CellTiter-Glo viability, Fa and CalcuSyn CI; conditions: 6 days;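 note: fa derived from CellTiter-Glo luminescence signal, CI calculated in CalcuSyn from doses and Fa, with 0.9–1.1 nearly additive and smaller values indicating synergism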
Experimental: as §1, §2

[7] = system: PSN1 cells; test: Combination with irinotecan, CellTiter-Glo viability, Fa and CalcuSyn CI; format: cell-based; conditions: 6 days
Experimental: as §1, §2

[8] = system: endogenous MTAP-null patient derived xenograft models; test: MTAP-null patient derived xenograft (PDX) models, tumor growth inhibition; format: in vivo, mice
Text: Female NOD/SCID mice were implanted with PA5415 (pancreatic tumors) or ES11082 (esophageal tumors). […] Data represent group means±SEM, n=10. for each group.
For each model, 6 Female NOD/SCID mice were implanted with PDX. Mean tumor volumes for each grouping were between 100-200 mm^3.
6 Female NOD/SCID mice were implanted with patient-derived tumor xenograft (PDX) models of pancreatic ovarian, esophageal, melanoma, lung, brain, mixed mullerian or gallbladder cancer. Mean tumor volumes for each grouping were between 100-200 mm^3.

[9] = system: MIAPACA2T2 cells; test: Combination with carboplatin, CellTiter-Glo viability, Fa and CalcuSyn CI; format: cell-based; conditions: 6 days
Experimental: as §1, §2

[10] = system: HCT116 MTAP-null tumor xenografts; conditions: mouse, in vivo, po
Experimental: FIG. 2: ELISA analysis of HCT116 MTAP WT and HCT116 MTAP-null contralateral tumor cells. […] Percentage of inhibition reported relative to matched vehicle. Data represent mean±SD, n=3 for each group.
Female Athymic Nude mice were implanted with HCT116 MTAP-null or MTAP WT tumors. […] Data represents group means±SEM, n=10. […] STATS: P values were determined by Linear Mixed-Effects Model with a Dunnett's comparison to control.

[11] = system: A549 cells; test: Combination with pemetrexed, CellTiter-Glo viability, Fa and CalcuSyn CI; conditions: 6 days;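 note: fa derived from raw CellTiter-Glo luminescence, CI computed by CalcuSyn from drug concentrations and Fa, with values below 0.9 meaning synergism and 0.9–1.1 nearly additive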
Experimental: as §1, §2

[12] = system: MIAPACA2T2 cells; test: Combination with gemcitabine, CellTiter-Glo viability, Fa and CalcuSyn CI; format: cell-based; conditions: 6 days
Experimental: as §1, §2

[13] = Compound B 0.1535 μM fixed + Paclitaxel 0.0005 μM
[14] = Compound B 0.1535 μM fixed + Paclitaxel 0.0007 μM
[15] = Compound B 0.1535 μM fixed + Paclitaxel 0.0009 μM
[16] = Compound B 0.1535 μM fixed + Paclitaxel 0.0011 μM
[17] = Compound B 0.1535 μM fixed + Paclitaxel 0.0015 μM
[18] = Compound B 0.1535 μM fixed + Paclitaxel 0.0019 μM
[19] = Compound B 0.1535 μM fixed + Paclitaxel 0.0025 μM
[20] = Compound B 0.2916 μM fixed + Paclitaxel 0.0005 μM
[21] = Compound B 0.2916 μM fixed + Paclitaxel 0.0007 μM
[22] = Compound B 0.2916 μM fixed + Paclitaxel 0.0009 μM
[23] = Compound B 0.2916 μM fixed + Paclitaxel 0.0011 μM
[24] = Compound B 0.2916 μM fixed + Paclitaxel 0.0015 μM
[25] = Compound B 0.2916 μM fixed + Paclitaxel 0.0019 μM
[26] = Compound B 0.2916 μM fixed + Paclitaxel 0.0025 μM
[27] = Compound B 0.1535 μM fixed + Pemetrexed 0.131687 μM
[28] = Compound B 0.1535 μM fixed + Pemetrexed 0.197531 μM
[29] = Compound B 0.1535 μM fixed + Pemetrexed 0.296296 μM
[30] = Compound B 0.1535 μM fixed + Pemetrexed 0.444444 μM
[31] = Compound B 0.1535 μM fixed + Pemetrexed 0.666667 μM
[32] = Compound B 0.1535 μM fixed + Pemetrexed 1 μM
[33] = Compound B 0.1535 μM fixed + Pemetrexed 1.5 μM
[34] = Compound B 0.2916 μM fixed + Gemcitabine 0.002045 μM

## Cc1cc2cc(C(=O)N(Cc3ccc(C(F)(F)F)cn3)[C@@H](C)c3ncccn3)ccc2nc1N [Compound B]
[1]; [13]
  Combination Fa: 0.7030
  Computed CI value: 0.545
[1]; [14]
  Combination Fa: 0.7177
  Computed CI value: 0.64
[1]; [15]
  Combination Fa: 0.7578
  Computed CI value: 0.716
[1]; [16]
  Combination Fa: 0.8365
  Computed CI value: 0.745
[1]; [17]
  Combination Fa: 0.9023
  Computed CI value: 0.786
[1]; [18]
  Combination Fa: 0.9387
  Computed CI value: 0.867
[1]; [19]
  Combination Fa: 0.9692
  Computed CI value: 0.898
[2]
  IC50: 0.05 µM
[3]; Compound B 0.4374 μM fixed + Irinotecan 0.256 μM
  Computed CI value: 0.602
[3]; Compound B 0.4374 μM fixed + Irinotecan […]
  Computed CI value: 0.647
[4]; [20]
  Combination Fa: 0.7127
  Computed CI value: 0.84
[4]; [21]
  Combination Fa: 0.7796
  Computed CI value: 0.758
[4]; [22]
  Combination Fa: 0.8302
  Computed CI value: 0.757
[4]; [23]
  Combination Fa: 0.8932
  Computed CI value: 0.724
[4]; [24]
  Combination Fa: 0.9425
  Computed CI value: 0.697
[4]; [25]
  Combination Fa: 0.9568
  Computed CI value: 0.8
[4]; [26]
  Combination Fa: 0.9674
  Computed CI value: 0.928
[5]; 100 mg/kg orally once daily + paclitaxel 20 mg/kg IP
  anti-tumor activity of combination with paclitaxel: significant anti-tumor activity versus either single agent alone; also recorded: significant anti-tumor activity versus paclitaxel or carboplatin alone
[5]; orally once daily + carboplatin 60 mg/kg IP 1×/week
  anti-tumor activity of combination with carboplatin: significant anti-tumor activity versus paclitaxel or carboplatin alone
[6]; [27]
  Combination Fa: 0.6769
  Computed CI value: 0.73
[6]; [28]
  Combination Fa: 0.7032
  Computed CI value: 0.587
[6]; [29]
  Combination Fa: 0.7484
  Computed CI value: 0.401
[6]; [30]
  Combination Fa: 0.7887
  Computed CI value: 0.309
[6]; [31]
  Combination Fa: 0.8438
  Computed CI value: 0.215
[6]; [32]
  Combination Fa: 0.8703
  Computed CI value: 0.216
[6]; [33]
  Combination Fa: 0.8508
  Computed CI value: 0.385
[7]; Compound B 0.0202 μM fixed + Irinotecan 0.088889 μM
  Computed CI value: 0.806
[7]; Compound B 0.0202 μM fixed + Irinotecan 0.133333 μM
  Computed CI value: 0.8
[7]; Compound B 0.0202 μM fixed + Irinotecan 0.2 μM
  Computed CI value: 0.8
[8]; 100 mg/kg orally once daily, majority of PDX models harboring deletion of the MTAP gene, panel of over twenty PDX models
  tumor growth inhibition (TGI): greater than 50%
[8]; PA5415 pancreatic and ES11082 esophageal PDX, p.o. once a day
  anti-tumor growth inhibition: significant anti-tumor growth inhibition
[9]; Compound B 0.4374 μM fixed + Carboplatin 2.47793 μM
  Combination Fa: 0.653
[9]; Compound B 0.4374 μM fixed + Carboplatin 11.1111 μM
  Computed CI value: 0.269
[10]
  SDMA and tumor growth in xenografts: selectively inhibits SDMA and tumor growth
[11]; Compound B 0.1535 μM fixed + Pemetrexed 0.087792 μM
  Combination Fa: 0.6401
[11]; [27]
  Combination Fa: 0.6629
  Computed CI value: 0.936
[11]; [28]
  Combination Fa: 0.6484
  Computed CI value: 1.172
[11]; [29]
  Combination Fa: 0.6761
  Computed CI value: 1.033
[11]; [30]
  Combination Fa: 0.7384
  Computed CI value: 0.639
[11]; [31]
  Combination Fa: 0.8303
  Computed CI value: 0.235
[11]; [32]
  Combination Fa: 0.8717
  Computed CI value: 0.139
[12]; Compound B 0.2916 μM fixed + Gemcitabine 0.001461 μM
  Combination Fa: 0.567
[12]; [34]
  Combination Fa: 0.514
  Computed CI value: 1.006
[12]; Compound B 0.2916 μM fixed + Gemcitabine 0.002863 μM
  Computed CI value: 0.823
[12]; Compound B 0.2916 μM fixed + Gemcitabine 0.004009 μM
  Computed CI value: 0.866
[12]; Compound B 0.2916 μM fixed + Gemcitabine 0.005612 μM
  Computed CI value: 0.843
[12]; Compound B 0.2916 μM fixed + Gemcitabine 0.007857 μM
  Computed CI value: 0.895
[12]; Compound B 0.2916 μM fixed + Gemcitabine 0.011 μM
  Computed CI value: 1.007
